The record followed here is patent publication US6482850B2, “Hydrolysis-promoting hydrophobic taxane derivatives” (priority 1995, dated 2002).

Series [1] has as its system human MCF-7 breast carcinoma cells. Put plainly: HTD cytotoxicity, growth inhibition of MCF-7 cells (Table 1). Format: cell-based. The settings on record: MCF-7, 72-hour incubation; ± standard deviation.
For series [2], the system named is HT-29 human colon carcinoma cells. As to the kind of experiment: In vitro sensitivity, sulforhodamine B cytotoxicity assay, HT-29 (Table 2). Format: cell-based. The following applies: 72-hour incubation; averaged from two separate experiments. Background: Sulforhodamine B stains cellular protein and so reports cell mass.
For series [3], the system named is A-549 human lung carcinoma. Put plainly: In vitro sensitivity, sulforhodamine B cytotoxicity assay, A-549 (Table 2). The format is cell-based. The following applies: 72-hour incubation; averaged from two separate experiments. Here is the method: Briefly, 96-well microtiter plates were inoculated (100 μL/well) with 5×10^3 (A549) or 7.5×10^3 (OVCAR-3) cells/well, in RPMI-1640 supplemented with 10% FBS (growth media). The plates were incubated for 24 hr at 37° C., 100% humidity and 5% CO2. At 24 hours, growth media (100 μL) was added to designated “time zero” plates. Similarly, serial dilutions of drug or vehicle (in media) were added (100 μL aliquots) to the test and vehicle control wells at twice the predetermined highest concentration. […] Cells (including time zero plates) were then fixed with 50 μL of 50% trichloroacetic acid (TCA) (w:v) for adherent cells or 80% TCA for suspended cells, and plates refrigerated at 4° C. for 1 hr. […] The plates were then air-dried for 24 hr.

For series [4], the system named is MCF-7 human breast carcinoma. As to the kind of experiment: In vitro sensitivity, sulforhodamine B cytotoxicity assay, MCF-7 (Table 2). Format: cell-based. The following applies: 72-hour incubation; averaged from two separate experiments.
The test system of series [5] is MCF-7/ADR (adriamycin-resistant). As to the kind of experiment: In vitro sensitivity, sulforhodamine B cytotoxicity assay, MCF-7/ADR (Table 2). The format is cell-based, human. The settings on record: 72-hour incubation; averaged from two separate experiments.
The subject of another series is CDF1 female mice. As to the kind of experiment: Acute toxicity of liposomal paclitaxel or paclitaxel derivative given intraperitoneally. The settings on record: liposomes, i.p. On the procedure:
Moreover, liposomes containing either paclitaxel or a 2′-(2-bromo) hydrophobic paclitaxel derivative (containing either a six-carbon (C-6), C-8, C-12, C-14 or C-16 acyl chain at the 2′ position) were administered, intraperitoneally in 5 doses, to SCID (severe combined inimunodeficiency) mice bearing a human ovarian cancer (OvCar 3), at a dose of 12.5 mg paclitaxel per kg or a dose of 50 mg paclitaxel derivative per kg.
CDF1 female mice, 5 or 10 mice per group, were intraperitoneally administered either paclitaxel-, 2′-C6-paclitaxel derivative-, or 2′-C16-paclitaxel derivative-containing liposomes, in a single dose, or 5 doses, of either 12.5, 25, 50, 100, 200, 300. 400 or 500 mg of paclitaxel or paclitaxel derivative per kg of mouse body weight.

As a reminder, the GI50 is the concentration at which growth is held to half of that of the control. The low end stands for greater sensitivity of the cells, the high end for lower sensitivity of the cells. Take `CC(=O)OC1C(=O)C2(C)C(O)CC3OCC3(OC(C)=O)C2C(OC(=O)c2ccccc2)C2(O)CC(OC(=O)C(OC(=O)CCCCCBr)C(NC(=O)c3ccccc3)c3ccccc3)C(C)=C1C2(C)C` (centres unmarked) [2′-6-Bromohexanoyl-]: in series [1], the GI50 was above 10000 nM.

For the compound `CCCCCCCCCCC(Br)C(=O)OC(C(=O)OC1CC2(O)C(OC(=O)c3ccccc3)C3C4(OC(C)=O)COC4CC(O)C3(C)C(=O)C(OC(C)=O)C(=C1C)C2(C)C)C(NC(=O)c1ccccc1)c1ccccc1` (centres unmarked) [2′-2-Bromo-C12-Paclitaxel, 2′-(2 bromolauranoyl) paclitaxel], the GI50 in series [2] was 3.2 nM; in series [3], 4.4 nM; in series [4] it was 2.8 nM; in series [5] it was above 10000 nM.

For `CCCCCCC(Br)C(=O)O[C@@H](C(=O)O[C@H]1C[C@@]2(O)[C@@H](OC(=O)c3ccccc3)[C@@H]3[C@]4(OC(C)=O)CO[C@@H]4C[C@H](O)[C@@]3(C)C(=O)[C@H](OC(C)=O)C(=C1C)C2(C)C)[C@@H](NC(=O)c1ccccc1)c1ccccc1` (some centres unmarked) [2′-2-Bromo-C8-Paclitaxel, 2′-(2-bromocapryanoyl) paclitaxel], the GI50 is 3.1 nM in series [2], 4.4 nM in series [3], 2.9 nM in series [4] and above 10000 nM in series [5].

For the compound `CCCCCC(=O)OC(C(=O)OC1CC2(O)C(OC(=O)c3ccccc3)C3C4(OC(C)=O)COC4CC(OC(=O)CCCCC)C3(C)C(=O)C(OC(C)=O)C(=C1C)C2(C)C)C(NC(=O)c1ccccc1)c1ccccc1` (centres unmarked) [2′,7-diHexanoyl-], the GI50 in series [1] is above 10000 nM.

The compound `CC(=O)OC1C(=O)C2(C)C(OC(=O)CCCCCBr)CC3OCC3(OC(C)=O)C2C(OC(=O)c2ccccc2)C2(O)CC(OC(=O)C(O)C(NC(=O)c3ccccc3)c3ccccc3)C(C)=C1C2(C)C` (centres unmarked) [7-6-Bromohexanoyl-] showed a GI50 in series [1] of 18 ± 2 nM.

`CCCCCC(=O)OC(C(=O)OC1CC2(O)C(OC(=O)c3ccccc3)C3C4(OC(C)=O)COC4CC(O)C3(C)C(=O)C(OC(C)=O)C(=C1C)C2(C)C)C(NC(=O)c1ccccc1)c1ccccc1` (centres unmarked) [2′-Hexanoyl-] returned a GI50 in series [1] of 500 ± 151 nM.

Regarding `CCCCCC(=O)OC1CC2OCC2(OC(C)=O)C2C(OC(=O)c3ccccc3)C3(O)CC(OC(=O)C(O)C(NC(=O)c4ccccc4)c4ccccc4)C(C)=C(C(OC(C)=O)C(=O)C12C)C3(C)C` (centres unmarked) [7-Hexanoyl-], in series [1], growth was halved (GI50) at 27 ± 19 nM.

Regarding `CCCCC(Br)C(=O)O[C@@H](C(=O)O[C@H]1C[C@@]2(O)[C@@H](OC(=O)c3ccccc3)[C@@H]3[C@]4(OC(C)=O)CO[C@@H]4C[C@H](O)[C@@]3(C)C(=O)[C@H](OC(C)=O)C(=C1C)C2(C)C)[C@@H](NC(=O)c1ccccc1)c1ccccc1` (mixture of isomers) [2′-2-Bromohexanoyl-, 2′-(R)-[(±)-2-Bromohexanoyl] taxol], the GI50 in series [2] is 2.4 nM; in series [3] it was 3.9 nM; in series [1], 3 ± 0.2 nM; in series [4], 2.3 nM; in series [5] it was above 10000 nM. The “number of mice that died within the first 14 days post-injection/total” value is 0/5 in the series with CDF1 female mice (five doses of 50 mg/kg); 0/2 with CDF1 female mice (single dose 200 mg/kg); 4/5 with CDF1 female mice (single dose 300 mg/kg); 5/5 in the series on CDF1 female mice (single dose 400 mg/kg); 5/5 with CDF1 female mice (single dose 500 mg/kg).

For the compound `CCCCCC(=O)OC1CC2OCC2(OC(C)=O)C2C(OC(=O)c3ccccc3)C3(O)CC(OC(=O)C(OC(C)=O)C(NC(=O)c4ccccc4)c4ccccc4)C(C)=C(C(OC(C)=O)C(=O)C12C)C3(C)C` (centres unmarked) [2′-Acetyl-7-Hexanoyl-], halving of growth in series [1] (GI50) required 4460 ± 60 nM.

Compound `CCCCC(Br)C(=O)OC1CC2OCC2(OC(C)=O)C2C(OC(=O)c3ccccc3)C3(O)CC(OC(=O)C(O)C(NC(=O)c4ccccc4)c4ccccc4)C(C)=C(C(OC(C)=O)C(=O)C12C)C3(C)C` (centres unmarked) [7-2-Bromohexanoyl-] showed a GI50 in series [1] of 4.6 ± 0.1 nM.

For the compound `CCCCCCCCCCCCC(Br)C(=O)OC(C(=O)OC1CC2(O)C(OC(=O)c3ccccc3)C3C4(OC(C)=O)COC4CC(O)C3(C)C(=O)C(OC(C)=O)C(=C1C)C2(C)C)C(NC(=O)c1ccccc1)c1ccccc1` (centres unmarked) [2′-2-Bromo-C14-Paclitaxel, 2′-(2 bromomyrstanoyl) paclitaxel], the GI50 was 20.6 nM in series [2], 31.7 nM in series [3], 16 nM in series [4] and above 10000 nM in series [5].
